Measurements: paper PMC7048748, “Anxiolytic Drug FGIN-1-27 Ameliorates Autoimmunity by Metabolic Reprogramming of Pathogenic Th17 Cells” (Scientific Reports, 2020)

Experiments:
[1] = tested on: ZAP70; assay: Phospho ZAP70 staining after anti-CD3/CD28 stimulation; assay type: cell-based, mouse; conditions: 10 μM, 24 hours
Experimental: The following day, cells were treated with either DMSO or of FGIN-1-27 (10 μM). For phospho-ZAP70 analyses, cells were stained after 24 hours of treatment using 10 μg/ml of biotinylated anti-CD3 (145-2C11, BD Biosciences) and anti-CD28 (37.51, BD Biosciences) antibodies on ice for 15 minutes, washed, and stimulated in presence of 20 μg/ml of Streptavidin for 10 minutes at 37 degrees. Cells were then fixed in 2% PFA, permeabilized in Methanol/Acetone and stained with anti-phospho ZAP70 antibody (n3kobu5, eBioscience) and anti-CD4 (RM4-5, eBioscience). For phospho-STAT3 analyses, cells were cultured for additional 24 hours in IL-6 free media, before stimulation with 100 ng/ml of mIL-6 for 30 minutes. Cells were then fixed in 2% PFA, permeabilized in Methanol/Acetone and stained with anti-phospho-STAT3 antibody (4/P-STAT3, BD Biosciences) and anti-CD4. Dead cells were excluded using Live/Dead […] (Thermo Fisher) staining prior to stimulation. page 3: Supplementary Figur es Fig S1 (a) Genomic browser screenshot of Tspo depicting normalized RNA-seq read coverage (RPM) in different T cell subsets. Data were downloaded from NCBI GEO (accession number GSE40918) and processed as in Figure 4A. […] (g) Transcript levels for S ta t3 after 24 hours of treatment with DMSO or FGIN-1-27 quantified by qPCR. […]

[2] = design: method as in PMID 21119734, PMID 1326631, PMID 29698632; conditions: cited from earlier work

CCCCCCN(CCCCCC)C(=O)Cc1c(-c2ccc(F)cc2)[nH]c2ccccc12 [FGIN-1-27, N, N-di-n-hexyl 2-(4-fluorophenyl) indole-3-acetamide]
phosphorylation of ZAP70 [1]: did not phosphorylate ZAP70 | crossing of the blood brain barrier [2]: can cross the blood brain barrier
